Patent US11161856B2 (H. Lundbeck A/S, priority 2017, dated 2021)

Key:
Type in all cases: biochemical
MGLL = target: T1, MGLL (Mus musculus, UniProt O35678); test: In vitro competitive activity-based protein profiling, mouse brain proteome (MGLL); design: IC50 MGLL Brain (Mouse, μM): scale not given here; conditions: for % Inh MGLL Brain (Mouse, μM): concentration not given (μM)
T1 construct: Brain; from tissue; host or cells: mouse brain proteome
T1 sequence (O35678 1-303): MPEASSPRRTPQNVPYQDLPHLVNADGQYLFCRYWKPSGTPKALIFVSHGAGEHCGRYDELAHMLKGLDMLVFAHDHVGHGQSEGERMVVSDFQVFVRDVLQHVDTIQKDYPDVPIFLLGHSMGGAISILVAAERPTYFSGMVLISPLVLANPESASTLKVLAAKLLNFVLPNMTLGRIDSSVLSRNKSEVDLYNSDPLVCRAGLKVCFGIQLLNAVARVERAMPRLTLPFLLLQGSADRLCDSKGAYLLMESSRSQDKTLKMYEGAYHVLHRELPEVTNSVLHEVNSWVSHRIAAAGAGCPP

MAGL = target: T2, MAGL (Homo sapiens, UniProt Q99685); test: In vitro competitive activity-based protein profiling (FP-Rh or HT-01 probe, gel-based); design: IC50 MGLL PC3 (Human, μM) / IC50 MGLL PFC (Human, μM): scale not given here; conditions: for % Inh MGLL PFC (Human, μM) / IC50 MGLL PFC (Human, μM): prefrontal cortex (PFC) proteome; for % Inh MGLL PFC (Human, μM) / % Inh MGLL PC3 (Human, μM): concentration not given (μM); for % Inh MGLL PC3 (Human, μM) / IC50 MGLL PC3 (Human, μM): PC3 cell proteome
T2 construct: Proteomes (human prefrontal cortex or cell membrane fractions); from tissue
T2 sequence (Q99685 1-303): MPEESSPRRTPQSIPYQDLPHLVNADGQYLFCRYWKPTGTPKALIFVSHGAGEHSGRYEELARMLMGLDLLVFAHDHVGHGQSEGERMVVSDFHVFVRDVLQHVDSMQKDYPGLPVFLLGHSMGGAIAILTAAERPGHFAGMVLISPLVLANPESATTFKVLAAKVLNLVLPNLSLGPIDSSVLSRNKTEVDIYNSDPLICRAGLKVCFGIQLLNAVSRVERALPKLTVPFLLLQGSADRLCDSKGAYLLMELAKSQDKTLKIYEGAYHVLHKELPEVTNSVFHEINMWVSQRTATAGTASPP
Outline: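 Human prefrontal cortex or cell membrane proteomes (1.0 mg/mL total protein) were preincubated with varying inhibitor concentrations for 30 min at 37° C. FP-Rh or HT-01 probe (50 μM DMSO stock) was then added for 30 min at room temperature, and samples were quenched in SDS loading buffer and resolved by SDS-PAGE.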

ABHD6 = target: T3, ABHD6 (Mus musculus, UniProt Q8R2Y0); test: In vitro competitive activity-based protein profiling, mouse brain proteome (ABHD6); conditions: mouse brain proteome; concentration not given (μM)
T3 construct: Brain; from tissue; host or cells: mouse brain proteome
T3 sequence (Q8R2Y0 1-336): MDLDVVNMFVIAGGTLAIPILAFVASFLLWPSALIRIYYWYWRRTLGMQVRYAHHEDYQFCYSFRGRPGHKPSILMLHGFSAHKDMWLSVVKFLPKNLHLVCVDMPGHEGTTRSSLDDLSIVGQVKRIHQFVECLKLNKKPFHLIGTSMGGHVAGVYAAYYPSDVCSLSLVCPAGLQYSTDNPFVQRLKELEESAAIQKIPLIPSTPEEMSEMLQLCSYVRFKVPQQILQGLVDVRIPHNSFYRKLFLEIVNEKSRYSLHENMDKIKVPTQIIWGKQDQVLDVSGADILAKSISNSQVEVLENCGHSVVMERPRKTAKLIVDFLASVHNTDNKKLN
Description: [The source words this procedure for another target and reports this target under the same test.] In Vitro Competitive Activity-Based Protein Profiling.
Proteomes (human prefrontal cortex or cell membrane fractions) (50 μL, 1.0 mg/mL total protein concentration) were preincubated with varying concentrations of inhibitors at 37° C. After 30 min, FP-Rh or HT-01 (1.0 μL, 50 μM in DMSO) was added and the mixture was incubated for another 30 min at room temperature. Reactions were quenched with SDS loading buffer (15 μL-4×) and run on SDS-PAGE.

SMILES	% Inh MGLL Brain (Mouse, μM) (MGLL)	% Inh MGLL PFC (Human, μM) (MAGL)	% Inh ABHD6 Brain (Mouse, μM) (ABHD6)	% Inh MGLL PC3 (Human, μM) (MAGL)	IC50 MGLL PFC (Human, μM) (MAGL)	IC50 MGLL PC3 (Human, μM) (MAGL)	IC50 MGLL Brain (Mouse, μM) (MGLL)
O=C(O)C1CCN(Cc2cc(CN3CCC4(CC3)CCN(C(=O)OC(C(F)(F)F)C(F)(F)F)C4)cc(C(F)(F)F)c2)CC1 [Example 223, l-(3-((2-(((1,1,1,3,3,3-Hexafluoropropan-2-yl)oxy)carbonyl)-2,8-diazaspiro[4.5]decan-8-yl)methyl)-5-(trifluoromethyl)benzyl) piperidine-4-carboxylic acid]	# (# is ≤25%)	## (## is between 25 and 75%)	# (# is ≤25%)	–	–	–	–
O=C(OC(C(F)(F)F)C(F)(F)F)N1CC2(CCN(Cc3ccc(C(F)(F)F)cc3N3CCCC3)CC2)C1 [Example 150, 1,1,1,3,3,3-Hexafluoropropan-2-yl 7-(2-(pyrrolidin-1-yl)-4-(trifluoromethyl)benzyl)-2,7-diazaspiro[3.5]nonane-2-carboxylate]	# (# is ≤25%)	## (## is between 25 and 75%)	### (### is ≥75%)	–	–	–	–
CN(Cc1cccc(F)c1C1(C(=O)O)CCCC1)C1(C)CCN(C(=O)OC(C(F)(F)F)C(F)(F)F)CC1 [Example 144, l-(2-Fluoro-6-{[(1-{[(1.1,1,3,3,3-hexafluoropropan-2-yl)oxy]carbonyl}-4-methylpiperidin-4-yl)(methyl)ainino]methyl}phenyl)cyclopentane-1-carboxylic acid]	### (### is ≥75%)	–	# (# is ≤25%)	### (### is ≥75%)	–	–	–
O=C(O)C1CCCCN1c1cc(CN2CC3(CCN(C(=O)OC(C(F)(F)F)C(F)(F)F)CC3)C2)cc(C(F)(F)F)c1 (stereo not drawn) [Example 120, l-(3-((7-(((1,1,1,3,3,3-Hexafluoropropan-2-yl)oxy)carbonyl)-2,7-diazaspiro[3,5]nonan-2-yl)methyl)-5-(trifluoromethyl)phenvl)piperidine-2-carboxylic acid]	### (### is ≥75%)	### (### is ≥75%)	### (### is ≥75%)	–	–	–	–
O=C(O)CN1CCN(c2cc(CN3CCCC34CCN(C(=O)OC(C(F)(F)F)C(F)(F)F)CC4)cc(C(F)(F)F)c2)CC1 [Example 2, 2-(4-(3-((8-(((1,1,1,3,3,3-Hexafluoropropan-2-yl)oxy)carbonyl)-1,8-diazaspiro[4.5]decan-1-yl)methyl)-5-(trifluoromethyl)phenyl)piperazin-1-yl)acetic acid]	### (### is ≥75%)	–	# (# is ≤25%)	### (### is ≥75%)	–	–	–
O=C(O)CN1CCC2(CC1)CCN(c1cc(C(F)(F)F)ccc1CN1CCCC13CCN(C(=O)OC(C(F)(F)F)C(F)(F)F)CC3)C2 [Example 154, 2-(2-(2-((8-(((1,1,1,3,3,3-Hexafluoropropan-2-yl)oxy)carbonyl)-1,8-diazaspiro[4.5]decan-1-yl)methyl)-5-(trifluoromethyl)phenyl)-2,1-diazaspiro[4.5]decan-8-yl)acetic acid]	### (### is ≥75%)	### (### is ≥75%)	# (# is ≤25%)	–	–	–	–
O=C(O)C1CCN(Cc2cc(Cl)cc(C(=O)N3CCCC34CCN(C(=O)OC(C(F)(F)F)C(F)(F)F)CC4)c2)CC1 [Example 11, 1-(3-Chloro-5-(8-(((1,1,1,3,3,3-hexafluoropropan-2-yl)oxy)carbonyl)-1,8-diazaspiro[4.5]decane-1-carbonyl)benzyl)piperidine-4-carboxylic acid]	### (### is ≥75%)	–	# (# is ≤25%)	### (### is ≥75%)	* * *	–	–
O=C(O)C1CCN(c2cc(Cl)cc(CN3CC4(CCN(C(=O)OC(C(F)(F)F)C(F)(F)F)CC4)C3)c2)CC1 [Example 116, l-(3-Chloro-5-((7-(((1,1,1,3,3,3-hexafluoropropan-2-yl)oxy)carbonyl)-2,7-diazaspiro[3.5]nonan-2-yl)methyl)phenyl)piperidine-4-carboxylic acid]	### (### is ≥75%)	### (### is ≥75%)	### (### is ≥75%)	–	–	–	–
CC1(C(=O)O)CN(c2cc(CN3CC4(CCN(C(=O)OC(C(F)(F)F)C(F)(F)F)CC4)C3)cc(C(F)(F)F)c2)CCO1 (centres unmarked) [Example 22, 4-(3-((7-(((1,1,1,3,3,3-Hexafluoropropan-2-yl)oxy)carbonyl)-2,7-diazaspiro[3.5]nonan-2-yl)methyl)-5-(trifluoromethyl)phenyl)-2-methylmorpholine-2-carboxylic acid]	### (### is ≥75%)	### (### is ≥75%)	### (### is ≥75%)	–	–	* * *	–
O=C(O)C1COCCN1c1cc(CN2CC3(CCN(C(=O)OC(C(F)(F)F)C(F)(F)F)CC3)C2)cc(C(F)(F)F)c1 (centres unmarked) [Example 103]	### (### is ≥75%)	### (### is ≥75%)	## (## is between 25 and 75%)	–	–	–	–
O=C(O)C1CCN(c2cc(CN3CC4(CCN(C(=O)OC(C(F)(F)F)C(F)(F)F)CC4)C3)cc(C(F)(F)F)c2)CC1 [Example 99, 1-(3-((7-(((1,1,1,3,3,3-Hexafluoropropan-2-yl)oxy)carbonyl)-2,7-diazaspiro[3.5]nonan-2-yl)methyl)-5-(trifluoromethyl)phenyl)piperi-dine-4-carboxylic acid]	### (### is ≥75%)	### (### is ≥75%)	### (### is ≥75%)	–	–	–	–
CN(Cc1ccc(Cl)cc1N1CCC(C(=O)O)CC1)C1(C)CCN(C(=O)OC(C(F)(F)F)C(F)(F)F)CC1 [Example 135, l-(5-Chloro-2-(((1-(((1,1,1,3,3,3-hexafluoropropan-2-yl)oxy)carbonyl)-4-methylpiperidin-4-yl)(methyl)amino)methyl)phenyl)piperidine-4-carboxylic acid]	### (### is ≥75%)	–	### (### is ≥75%)	### (### is ≥75%)	–	–	–
O=C(O)CN1CCN(c2cc(C(F)(F)F)ccc2CN2CCCC23CCN(C(=O)OC(C(F)(F)F)C(F)(F)F)CC3)CC1 [Example 3, 2-(4-(2-((8-(((1,1,1,3,3,3-Hexafluoropropan-2-yl)oxy)carbonyl)-1,8-diazaspiro[4.5]decan-1-yl)methyl)-5-(trifluoromethyl)phenyl)piperazin-1-yl)acetic acid]	### (### is ≥75%)	–	# (# is ≤25%)	### (### is ≥75%)	* * *	* * *	* * *
O=C(O)C1CCN(Cc2ccc(CN3CCC4(CC3)CCN(C(=O)OC(C(F)(F)F)C(F)(F)F)C4)cc2C(F)(F)F)CC1 [Example 225, l-(4-((2-(((1,1,1,3,3,3-Hexafluoropropan-2-yl)oxy)carbonyl)-2,8-diazaspiro[4.5]decan-8-yl)methyl)-2-(trifluoromethyl)benzyl) piperidine-4-carboxylic acid]	# (# is ≤25%)	## (## is between 25 and 75%)	## (## is between 25 and 75%)	–	–	–	–
